Reference: ChEMBL document CHEMBL1201862, “PubChem BioAssay data set” (2004)
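Compound exposure: 48 hours, 5 concentrations, 96-well plates. GI50 = concentration required for 50% inhibition of growth.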 Active and inactive are the calls of the source. Cut-off read from the data, not from the text of the source: active = GI50 up to about 1.1 µM and inactive = higher.

Experiments:
Test in all cases: NCI tumour cell line growth inhibition, 48 h
DMS-273 = test system: DMS-273
LXFL 529 = test system: LXFL 529
M19-MEL = test system: M19-MEL
DLD-1 = test system: DLD-1
SNB-78 = test system: SNB-78
DMS-114 = test system: DMS-114
XF498 = test system: XF498
HOP-18 = test system: HOP-18
RXF 631 = test system: RXF 631

Measured: GI50

CCOC(=O)/C=C1\Nc2ccccc2C(c2ccccc2)=NC1OC(C)=O (configuration not stated)
inactive: DMS-273 > 100 µM | LXFL 529 > 100 µM | M19-MEL > 100 µM | DLD-1 > 100 µM | SNB-78 > 100 µM | DMS-114 > 100 µM

COc1ccc(/C(C#N)=C2/O/C(=N/N)C(c3ccc(OC)c(OC)c3)C2=O)cc1OC (configuration not stated)
inactive: DMS-273 > 100 µM | LXFL 529 > 100 µM | M19-MEL > 100 µM | DLD-1 > 100 µM | SNB-78 > 100 µM | XF498 > 100 µM

O=C(/C=C/c1ccc(O)cc1)c1cc(Cl)ccc1O
inactive: HOP-18 > 100 µM | LXFL 529 42.5 µM | M19-MEL 72.1 µM | DLD-1 43.6 µM | SNB-78 29.9 µM | DMS-114 23.3 µM | XF498 23.7 µM

CCOc1ccc(NC(=O)C(=O)CC(=O)c2sc(NNC(C)=O)nc2C)cc1
inactive: DMS-273 > 100 µM | LXFL 529 > 100 µM | M19-MEL > 100 µM | DLD-1 > 100 µM | SNB-78 > 100 µM | RXF 631 > 100 µM | XF498 > 100 µM

O=C1CSC(/C(=C\c2ccc(Cl)cc2)c2nc3ccccc3[nH]2)=N1
inactive: DMS-273 21 µM | LXFL 529 20.8 µM | M19-MEL 15.2 µM | DLD-1 16.3 µM | SNB-78 41.3 µM | XF498 1.36 µM

Cc1cn2cc(-c3ccncc3)nc2s1
inactive: HOP-18 > 100 µM | DMS-273 > 100 µM | LXFL 529 > 100 µM | M19-MEL > 86.7 µM | DLD-1 > 100 µM | SNB-78 > 100 µM | RXF 631 > 100 µM | DMS-114 > 91.4 µM | XF498 > 100 µM

O=C1CCC2(c3ccccc3)Nc3ccc(Cl)cc3N12 (configuration not stated)
inactive: LXFL 529 > 100 µM | M19-MEL > 100 µM | DLD-1 > 100 µM | SNB-78 > 100 µM | RXF 631 > 100 µM | DMS-114 63.5 µM | XF498 > 100 µM

Cc1c(C(=O)/C=C/c2ccccc2[N+](=O)[O-])[n+]([O-])c2ccccc2[n+]1[O-]
inactive: HOP-18 15.4 µM | DMS-273 3.61 µM | LXFL 529 4.89 µM | M19-MEL 5.97 µM | DLD-1 3.53 µM | SNB-78 12.3 µM | RXF 631 4.34 µM | DMS-114 5.55 µM

CC1c2ccccc2Cn2cc3c(c21)C(=O)c1cccc(OP(=O)(O)OCc2ccccc2)c1C3=O (configuration not stated)
inactive: LXFL 529 > 100 µM | DLD-1 > 100 µM | RXF 631 > 100 µM | DMS-114 > 100 µM | XF498 34.3 µM

COC(=O)C(Cc1cc(OC)c(OC)c(OC)c1)C(=O)OC
inactive: DMS-273 > 320 µM | LXFL 529 > 320 µM | M19-MEL > 320 µM | DLD-1 > 320 µM | RXF 631 > 320 µM | DMS-114 > 320 µM | XF498 > 320 µM

C=C(C)C(=O)OC1CCC2(C)C(CCC3C2CCC2(C)C(c4ccc(=O)oc4)CC4OC432)C1 (configuration not stated)
inactive: HOP-18 13.3 µM | DMS-273 3.31 µM | M19-MEL 3.91 µM | DLD-1 2.18 µM | SNB-78 5.47 µM | DMS-114 2.43 µM | XF498 5.15 µM

COc1ccc2nc3cc(Cl)ccc3c(Nc3ccccc3-c3ccccc3Nc3c4ccc(Cl)cc4nc4ccc(OC)cc34)c2c1
inactive: HOP-18 > 100 µM | DMS-273 20.4 µM | LXFL 529 17.1 µM | M19-MEL > 34.7 µM | SNB-78 > 100 µM | RXF 631 > 34.8 µM | XF498 > 39.4 µM

COC(=O)c1cc(Cl)ccc1NC(=O)c1ccc([N+](=O)[O-])cc1
inactive: DMS-273 21.6 µM | LXFL 529 25.8 µM | M19-MEL 40.7 µM | DLD-1 38.8 µM | SNB-78 32.6 µM | RXF 631 17.6 µM | DMS-114 33.5 µM | XF498 14.4 µM

COc1cccc(NC(=O)/C(CC(=O)CC(c2ccccc2)c2c(O)c3ccccc3oc2=O)=N\NC(C)(C)C)c1OC (configuration not stated)
inactive: LXFL 529 41.3 µM | M19-MEL > 100 µM | DLD-1 40.6 µM | SNB-78 > 100 µM | DMS-114 22.8 µM

Cc1cc(Cl)ccc1NC(=O)CC1SC(NC(=O)c2ccccc2Cl)=NC1=O (configuration not stated)
inactive: DMS-273 18.9 µM | LXFL 529 18 µM | M19-MEL 19.2 µM | DLD-1 19.1 µM | SNB-78 21.6 µM | DMS-114 20.4 µM | XF498 14.8 µM

O=C(N/C(=C\c1cc(Cl)ccc1Cl)c1nc2c(O)nc(S)nc2[nH]1)c1ccccc1
inactive: LXFL 529 15.6 µM | M19-MEL 27 µM | DLD-1 15.2 µM | SNB-78 55.3 µM | RXF 631 20.4 µM | DMS-114 25.2 µM | XF498 > 48.6 µM

O=C(N/C(=C\c1ccc(/C=C(\NC(=O)c2ccccc2)c2nc3cc([N+](=O)[O-])ccc3[nH]2)cc1)c1nc2cc([N+](=O)[O-])ccc2[nH]1)c1ccccc1
inactive: HOP-18 > 100 µM | DMS-273 51.6 µM | LXFL 529 28.4 µM | M19-MEL 52.4 µM | DLD-1 43.8 µM | SNB-78 > 100 µM | RXF 631 34.5 µM | DMS-114 18.8 µM

O=C(Nc1ccc(Sc2ccc(/N=N/c3c(O)c(S(=O)(=O)O)cc4cc(S(=O)(=O)O)ccc34)cc2)cc1)c1ccc(/N=N/c2c(O)c(S(=O)(=O)O)cc3cc(S(=O)(=O)O)ccc23)cc1
inactive: HOP-18 23 µM | DMS-273 15.1 µM | LXFL 529 18.1 µM | M19-MEL 19.5 µM | DLD-1 51.1 µM | SNB-78 25.8 µM | DMS-114 5.42 µM | XF498 36.4 µM

Cc1cc(N(CCC#N)CCC#N)ccc1/C=C1N=C(/C=C\c2ccccc2)OC\1=O
inactive: HOP-18 > 100 µM | DMS-273 > 100 µM | LXFL 529 > 100 µM | M19-MEL > 100 µM | DLD-1 > 100 µM | SNB-78 > 100 µM | DMS-114 > 100 µM | XF498 > 100 µM

C/C(=N/NC(N)=S)c1ccc2ccccc2c1
inactive: DMS-273 24.9 µM | LXFL 529 22.3 µM | M19-MEL 9.79 µM | DLD-1 21.2 µM | SNB-78 45.5 µM | DMS-114 17.9 µM | XF498 82.2 µM

O=C(Cc1nc2ccc([N+](=O)[O-])cc2nc1O)C(=O)Nc1ccccc1[N+](=O)[O-]
inactive: DMS-273 > 100 µM | LXFL 529 > 100 µM | M19-MEL > 100 µM | DLD-1 > 100 µM | DMS-114 39.5 µM

c1ccc2c(c1)nnn1c3cnccc3nc21
inactive: HOP-18 53.5 µM | DMS-273 15.9 µM | LXFL 529 31.8 µM | M19-MEL 65.9 µM | DLD-1 27.5 µM | SNB-78 25.5 µM | DMS-114 20.2 µM

Cc1ccc(NC(=O)CSc2nnc(Cc3ccccc3)o2)c(C)c1
inactive: HOP-18 > 100 µM | DMS-273 > 100 µM | LXFL 529 > 100 µM | M19-MEL > 100 µM | SNB-78 > 100 µM | DMS-114 > 100 µM | XF498 > 100 µM

CCc1cccc(C(C)C)c1N1C(=O)C(=O)C(c2nc3ccccc3s2)C(=O)C1=O
inactive: HOP-18 > 50 µM | DMS-273 > 45.3 µM | LXFL 529 28.9 µM | M19-MEL 39.1 µM | DLD-1 20.5 µM | SNB-78 > 50 µM | DMS-114 29.6 µM | XF498 > 50 µM
